Data taken from DBAASP.
≈ marks a conversion by molar mass, not a printed value. Where “and” joins values, the source holds several entries; their conditions need not be identical. Equal entries are not always repeated.

Columns and labels:
Experiment in all cases: ≥ marks a high value that may be exact or a test limit, other limits are often not marked, values filed in µg/mL are converted to µM
[1] = test system: Staphylococcus aureus MR
[2] = test system: Staphylococcus aureus
[3] = test system: Escherichia coli ATCC 35218
[4] = test system: Pseudomonas aeruginosa ATCC 27853
[5] = test system: Staphylococcus aureus ATCC 25923
[6] = test system: Escherichia coli MG1655
[7] = test system: Staphylococcus aureus ATCC 29213
[8] = test system: Escherichia coli NCTC 10418
[9] = test system: Staphylococcus aureus NCTC 10788
[10] = test system: Bacillus subtilis KCTC 3068
[11] = test system: Escherichia coli KCTC 1682
[12] = test system: Pseudomonas aeruginosa KCTC 1637
[13] = test system: Salmonella typhimurium KCTC 1926
[14] = test system: Staphylococcus aureus KCTC 1621
[15] = test system: Staphylococcus epidermidis KCTC 1917
[16] = test system: Candida albicans
[17] = test system: Pseudomonas aeruginosa PAO1
[18] = test system: Escherichia coli
[19] = test system: Pseudomonas aeruginosa
[20] = test system: Salmonella typhimurium

Compound | MIC [2] | MIC [10] | MIC [11] | MIC [12] | MIC [13] | MIC [14] | MIC [15] | also measured
CC[C@H](C)[C@H](NC(C)=O)C(=O)N[C@@H](CC(=O)O)C(=O)NCC(=O)N[C@@H](CC(C)C)C(=O)N[C@@H](CCCCN)C(=O)N[C@@H](C)C(=O)N[C@H](C(=O)N[C@@H](Cc1c[nH]c2ccccc12)C(=O)N[C@@H](CCCCN)C(=O)N[C@@H](CCCCN)C(=O)N[C@H](C(=O)N[C@@H](C)C(=O)N[C@@H](CC(=O)O)C(=O)N[C@@H](CC(C)C)C(=O)N[C@@H](CC(C)C)C(=O)N[C@@H](CCCCN)C(=O)N[C@@H](CC(N)=O)C(=O)N[C@H](C(N)=O)[C@@H](C)O)C(C)C)[C@@H](C)CC [IDGLKAIWKKVADLLKNT] |  |  |  |  |  |  |  | MIC [3]: 9 µM (≈ 18.6 µg/mL); MIC [4]: 72.5 µM (≈ 150 µg/mL); MIC [5]: > 72.5 µM
CC[C@H](C)[C@H](NC(=O)[C@@H](NC(=O)[C@@H]1CCCN1C(=O)[C@@H](NC(=O)[C@@H](NC(=O)[C@H](Cc1cnc[nH]1)NC(=O)[C@@H]1CCCN1C(=O)[C@H](CC(C)C)NC(=O)[C@@H](NC(=O)[C@H](Cc1cnc[nH]1)NC(=O)[C@H](CCCCN)NC(=O)[C@H](C)NC(=O)[C@@H](NC(=O)[C@H](CO)NC(=O)CNC(=O)[C@H](CC(C)C)NC(=O)[C@@H](NC(=O)[C@H](CO)NC(=O)[C@H](CC(C)C)NC(=O)[C@H](CC(C)C)NC(=O)CN)C(C)C)C(C)C)C(C)C)C(C)C)C(C)C)C(C)C)C(=O)N[C@@H](C)C(=O)N[C@@H](CCC(=O)O)C(=O)N[C@@H](Cc1cnc[nH]1)C(=O)N[C@@H](CC(C)C)C(N)=O [GLLSVLGSVAKHVLPHVVPVIAEHL] |  |  |  |  |  |  |  | MIC [6]: ≥ 120 µM; MIC [7]: 8 µM (≈ 20.7 µg/mL)
CC[C@H](C)[C@H](NC(=O)CNC(=O)[C@@H]1CCCN1C(=O)[C@H](CC(C)C)NC(=O)[C@@H](N)Cc1ccccc1)C(=O)N[C@@H](CC(C)C)C(=O)N[C@@H](CCCCN)C(=O)N[C@H](C(=O)N[C@@H](C)C(=O)N[C@@H](C)C(=O)N[C@@H](CC(N)=O)C(=O)N[C@H](C(=O)N[C@H](C(=O)N1CCC[C@H]1C(=O)NCC(=O)N[C@H](C(=O)N[C@H](C(=O)N[C@H]1CSSC[C@@H](C(=O)O)NC(=O)[C@H](CCCCN)NC(=O)[C@H](CCCCN)NC(=O)[C@H]([C@@H](C)O)NC(=O)[C@H]([C@@H](C)CC)NC(=O)[C@H](C)NC1=O)[C@@H](C)CC)C(C)C)C(C)C)C(C)C)C(C)C [FLPGILKVAANVVPGVICAITKKC] |  |  |  |  |  |  |  | MIC [8]: ≥ 256 µM; MIC [9]: 4 µM and 8 µM
CC[C@H](C)[C@H](N)C(=O)N[C@@H](CC(C)C)C(=O)N1CCC[C@H]1C(=O)N[C@@H](Cc1c[nH]c2ccccc12)C(=O)N[C@@H](CCCCN)C(=O)N[C@@H](Cc1c[nH]c2ccccc12)C(=O)N1CCC[C@H]1C(=O)N[C@@H](Cc1c[nH]c2ccccc12)C(=O)N[C@@H](Cc1c[nH]c2ccccc12)C(=O)N[C@@H](CCCCN)C(=O)N[C@@H](Cc1c[nH]c2ccccc12)C(=O)N[C@@H](CCCN=C(N)N)C(=O)N[C@@H](CCCN=C(N)N)C(N)=O [ILPWKWPWWKWRR] |  | 5.16 µM (≈ 10 µg/mL) | 10.3 µM (≈ 20 µg/mL) | 10.3 µM (≈ 20 µg/mL) | 5.16 µM (≈ 10 µg/mL) | 2.58 µM (≈ 5 µg/mL) | 5.16 µM (≈ 10 µg/mL) | 
CSCC[C@H](NC(=O)[C@@H](NC(=O)[C@H](CCCCN)NC(=O)[C@H](Cc1cnc[nH]1)NC(=O)[C@H](CC(C)C)NC(=O)CN)C(C)C)C(=O)N[C@@H](CCCN=C(N)N)C(=O)N[C@@H](CCC(=O)O)C(=O)N[C@H](C(=O)N[C@@H](CC(C)C)C(=O)NCC(=O)N[C@@H](Cc1ccc(O)cc1)C(=O)N[C@@H](CCC(=O)O)C(=O)N[C@@H](CCCN=C(N)N)C(=O)N[C@@H](CC(N)=O)C(=O)N[C@@H](CO)C(=O)N[C@@H](Cc1ccc(O)cc1)C(=O)N[C@@H](CCCCN)C(N)=O)C(C)C [GLHKVMREVLGYERNSYK] |  |  |  |  |  |  |  | MIC [16]: > 128 µM; MIC [6]: ≥ 128 µM; MIC [17]: > 128 µM; MIC [5]: > 128 µM
CC[C@H](C)[C@H](N)C(=O)NCC(=O)N[C@@H](CCCCN)C(=O)N[C@@H](CCCCN)C(=O)N[C@@H](Cc1ccccc1)C(=O)N[C@@H](CCCCN)C(=O)N[C@@H](CCCN=C(N)N)C(=O)N[C@H](C(=O)N[C@H](C(=O)N[C@@H](CCCCN)C(=O)N[C@@H](CCCN=C(N)N)C(=O)N[C@H](C(=O)N[C@@H](CCCCN)C(=O)N[C@@H](CCCCN)C(=O)N[C@@H](Cc1ccccc1)C(=O)N[C@@H](CC(C)C)C(=O)N[C@@H](CCCN=C(N)N)C(=O)N[C@@H](CCCCN)C(=O)N[C@@H](CC(C)C)C(=O)O)[C@@H](C)CC)C(C)C)[C@@H](C)CC [IGKKFKRIVKRIKKFLRKL] |  | 2 µM (≈ 4.8 µg/mL) | 8 µM (≈ 19.2 µg/mL) | 8 µM (≈ 19.2 µg/mL) | 2 µM (≈ 4.8 µg/mL) | 4 µM (≈ 9.6 µg/mL) | 4 µM (≈ 9.6 µg/mL) | 
CC[C@H](C)[C@H](NC(=O)CNC(=O)[C@H](C)NC(=O)[C@@H](NC(=O)[C@H](C)NC(=O)[C@@H]1CCCN1C(=O)[C@H](CC(C)C)NC(=O)[C@@H](N)Cc1ccccc1)[C@@H](C)CC)C(=O)N[C@@H](CC(C)C)C(=O)N[C@@H](CO)C(=O)N[C@@H](CCC(N)=O)C(=O)N[C@@H](CC(C)C)C(=O)N[C@@H](Cc1ccccc1)C(N)=O [FLPAIAGILSQLF] |  |  |  |  |  |  |  | MIC [8]: ≥ 50 µM; MIC [9]: ≥ 200 µM
CC[C@H](C)[C@H](N)C(=O)N[C@@H](CC(C)C)C(=O)N1CCC[C@H]1C(=O)N[C@@H](Cc1c[nH]c2ccccc12)C(=O)N[C@@H](CCCCN)C(=O)N[C@@H](Cc1c[nH]c2ccccc12)C(=O)N1CCC[C@H]1C(=O)N[C@@H](Cc1c[nH]c2ccccc12)C(=O)N[C@@H](C)C(=O)N1CCC[C@H]1C(=O)N[C@@H](C)C(=O)N[C@@H](CCCN=C(N)N)C(=O)N[C@@H](CCCN=C(N)N)C(N)=O [ILPWKWPWAPARR] | 11.9 µM (≈ 20 µg/mL) |  |  |  |  |  |  | MIC [16]: 0.0012 µM (≈ 0.00201 µg/mL); MIC [18]: 119 µM (≈ 200 µg/mL); MIC [19]: 23.9 µM (≈ 40 µg/mL); MIC [20]: 11.9 µM (≈ 20 µg/mL)

Second part, led by results:

MIC [2] | MIC [10] | MIC [11] | MIC [12] | MIC [13] | MIC [14] | MIC [15] | Compound | also measured
60.8 µM (≈ 95.9 µg/mL) |  |  |  |  |  |  | CC(C)C[C@H](NC(=O)[C@@H](NC(=O)[C@H](CCCN=C(N)N)NC(=O)[C@H](CCCN=C(N)N)NC(=O)[C@@H](NC(=O)[C@@H](NC(=O)[C@H](CCCN=C(N)N)NC(=O)[C@H](CCCN=C(N)N)NC(=O)[C@@H](NC(=O)[C@H](CC(C)C)NC(=O)[C@@H](N)CCCN=C(N)N)C(C)C)C(C)C)C(C)C)C(C)C)C(=O)N[C@@H](CCCN=C(N)N)C(N)=O [RLVRRVVRRVLR] | MIC [1]: ≥ 63.4 µM
 | 3.79 µM (≈ 6.25 µg/mL) | 7.58 µM (≈ 12.5 µg/mL) | 3.79 µM (≈ 6.25 µg/mL) | 1.9 µM (≈ 3.13 µg/mL) | 7.58 µM (≈ 12.5 µg/mL) | 3.79 µM (≈ 6.25 µg/mL) | CC[C@H](C)[C@H](NC(=O)[C@H](CCCN=C(N)N)NC(=O)[C@@H]1CCCN1C(=O)[C@H](CC(C)C)NC(=O)[C@@H](N)CCCN=C(N)N)C(=O)N[C@@H](Cc1c[nH]c2ccccc12)C(=O)N[C@@H](Cc1c[nH]c2ccccc12)C(=O)N[C@H](C(=O)N[C@@H](CCCN=C(N)N)C(=O)N[C@H](C(=O)N1CCC[C@H]1C(=O)N[C@@H](CCCN=C(N)N)C(N)=O)C(C)C)[C@@H](C)CC [RLPRIWWIRVPR] | 
2.72 µM (≈ 3 µg/mL) |  |  |  |  |  |  | CC[C@H](C)[C@H](NC(=O)[C@H](C)NC(=O)[C@H](CC(C)C)NC(=O)[C@H](Cc1ccc(O)cc1)NC(=O)[C@H](CC(C)C)NC(=O)[C@H](C)N)C(=O)N[C@@H](CCCN=C(N)N)C(=O)N[C@@H](CCCCN)C(=O)N[C@@H](CCCN=C(N)N)C(N)=O [ALYLAIRKR] | MIC [18]: 3.63 µM (≈ 4 µg/mL); MIC [19]: 3.63 µM (≈ 4 µg/mL); MIC [1]: 27.2 µM (≈ 30 µg/mL)
3.55 µM (≈ 4 µg/mL) |  |  |  |  |  |  | CC[C@H](C)[C@H](NC(=O)[C@H](C)NC(=O)[C@H](CC(C)C)NC(=O)[C@H](Cc1c[nH]c2ccccc12)NC(=O)[C@H](CC(C)C)NC(=O)[C@H](C)N)C(=O)N[C@@H](CCCN=C(N)N)C(=O)N[C@@H](CCCCN)C(=O)N[C@@H](CCCN=C(N)N)C(N)=O [ALWLAIRKR] | MIC [18]: 8.88 µM (≈ 9.99 µg/mL); MIC [19]: 8.88 µM (≈ 9.99 µg/mL); MIC [1]: ≥ 35.5 µM
 | 4 µM (≈ 7.78 µg/mL) | 4 µM (≈ 7.78 µg/mL) | 16 µM (≈ 31.1 µg/mL) | 2 µM (≈ 3.89 µg/mL) | 2 µM (≈ 3.89 µg/mL) | 4 µM (≈ 7.78 µg/mL) | CC(C)C[C@H](NC(=O)[C@H](Cc1ccccc1)NC(=O)[C@H](CCCN=C(N)N)NC(=O)[C@H](CCCCN)NC(=O)[C@H](Cc1c[nH]c2ccccc12)NC(=O)[C@H](CCCN=C(N)N)NC(=O)[C@H](CCC(N)=O)NC(=O)[C@@H](NC(=O)[C@H](Cc1c[nH]c2ccccc12)NC(=O)[C@H](CCCN=C(N)N)NC(=O)[C@H](CCCCN)NC(=O)[C@@H](N)Cc1c[nH]c2ccccc12)C(C)C)C(=O)N[C@@H](CCCN=C(N)N)C(N)=O [WKRWVQRWKRFLR] | 
